Key:
[1] = system: Blumeria graminis f. sp. tritici; test: Control of powdery mildew on wheat (protective spray, greenhouse); format: in vivo; conditions: 7 days after inoculation, untreated 70% infection
Protocol: Preparation: The spray solutions were prepared in several steps:
A stock solution was prepared: a mixture of acetone and/or DMSO and the wetting agent/emulsifier Uniperol, which is based on ethoxylated alkylphenoles, in a relation (volume) solvent-emulsifier of 99 to 1 was added to 25 mg of the compound to give a total of 10 ml. Water was then added to total volume of 100 ml.
This stock solution was diluted with the described solvent-emulsifier-water mixture to the given concentration.
The first fully developed leaves of pot grown wheat were sprayed to run-off with an aqueous suspension, containing the concentration of active ingredient or their mixture mentioned in the table below. […] After cultivation in the greenhouse for 7 days at 22-26° C. and a relative humidity between 60 to 90% the extent of fungal attack on the leaves was visually assessed as % diseased leaf area.
The visually determined percentages of infected leaf areas were converted into efficacies in % of the untreated control:
The efficacy (E) is calculated as follows using Abbot's formula: […]
The expected efficacies of active compound combinations were determined using Colby's formula (Colby, S. R. “Calculating synergistic and antagonistic responses of herbicide combinations”, Weeds, 15, 20-22, 1967) and compared with the observed efficacies. […]

[2] = system: Pyrenophora teres; test: Control of net blotch on barley (protective spray, greenhouse); format: in vivo, Pyrenophora (syn. Drechslera) teres; conditions: 6 days after inoculation, untreated 70% infection
Protocol: Preparation: The spray solutions were prepared in several steps: A stock solution was prepared: a mixture of acetone and/or DMSO and the wetting agent/emulsifier Uniperol, which is based on ethoxylated alkylphenoles, in a relation (volume) solvent-emulsifier of 99 to 1 was added to 25 mg of the compound to give a total of 10 ml. Water was then added to total volume of 100 ml. This stock solution was diluted with the described solvent-emulsifier-water mixture to the given concentration. The first fully developed leaves of pot grown barley plants were sprayed to run-off with an aqueous suspension, containing the concentration of active ingredient or their mentioned in the table below. The next day the treated plants were inoculated with an aqueous spore suspension of Pyrenophora (syn. Drechslera) teres. Then the trial plants were immediately transferred to a humid chamber in the greenhouse. After 6 days of cultivation at 20-24° C. and a relative humidity close to 70%, the extent of fungal attack on the leaves was visually assessed as % leaf area. Evaluation was carried out analogously to example 1.

| Compound | Efficacy in % of the untreated control ([1]; 0.25 ppm in spray liquor) [%] | Efficacy in % of the untreated control ([2]; 4 ppm in spray liquor) [%] | Efficacy in % of the untreated control ([2]; 16 ppm in spray liquor) [%] | Efficacy in % of the untreated control ([1]; 0.063 ppm in spray liquor) [%] | Efficacy in % of the untreated control ([2]; 0.25 ppm in spray liquor) [%] |
| --- | --- | --- | --- | --- | --- |
| CN/C(=N\[N+](=O)[O-])NCc1cnc(Cl)s1 [Clothianidine, (E)-1-(2-chloro-1,3-thiazol-5-ylmethyl)-3-methyl-2-nitroguanidine] | 0 | 0 | 0 | – | – |
| CO/N=C(/C1=NOCCO1)c1ccccc1Oc1ncnc(Oc2ccccc2Cl)c1F [Fluoxastrobin, (E)-{2-[6-(2-chlorophenoxy)-5-fluoropyrimidin-4-yloxy]phenyl}(5,6-dihydro-1,4,2-dioxazin-3-yl)methanone O-methyloxime] | – | – | – | 0 | 0 |
